The text below walks through data of ChEMBL document CHEMBL1201862, “PubChem BioAssay data set” (2004).

Among the test systems are SK-MEL-2; SR; TK-10; RPMI-8226; PC-3; OVCAR-3; LOX IMVI; UACC-62; ACHN; SNB-19; SW-620; T47D; OVCAR-8; EKVX; CAKI-1; DU-145; A498; A549; HOP-62; UACC-257.
Assay in all cases: inhibition of tumour cell growth, NCI panel, 48 h

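1) Cells in 96-well plates. 2) Compound, 48 h, 5 concentrations. 3) Linear interpolation between surrounding doses. 4) Unreached endpoint = highest concentration. GI50 is the concentration that inhibits growth by half.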 The source made the active and inactive calls. Rule as the data show it: active = GI50 up to about 1.1 µM and inactive = higher.

With `CC(=O)OC1CCC2(C)C(=CCC3C2CCC2(C)C3CC3OC4(CCC(C)CN4)C(C)C32)C1` (stereo not given), the GI50 is > 100 µM (inactive) in the assay with SK-MEL-2; 80.2 µM (inactive) in the assay with SR; > 100 µM (inactive) with TK-10; > 100 µM (inactive) with RPMI-8226; > 100 µM (inactive) with PC-3; > 100 µM (inactive) in the assay with OVCAR-3. The GI50 in the assay on LOX IMVI, with UACC-62, in the assay on ACHN, in the assay with SNB-19, in the assay with SW-620 and in the assay with T47D was > 100 µM (inactive) each time. The GI50 in the assay on OVCAR-8, in the assay with EKVX, in the assay with CAKI-1, in the assay with DU-145, in the assay on A498 and in the assay on A549 was > 100 µM (inactive) each time. In addition, the GI50 in the assay on HOP-62 and in the assay with UACC-257 was > 100 µM (inactive) throughout.

Take `O=C(O)/C(Cc1c[nH]nn1)=N\O`: the GI50 with SK-MEL-2, with SR, in the assay with TK-10, in the assay with RPMI-8226, in the assay on PC-3 and in the assay with OVCAR-3 was > 100 µM (inactive) each time. Further, the GI50 with LOX IMVI, with UACC-62, with ACHN, in the assay with SNB-19, in the assay on SW-620 and in the assay on T47D was > 100 µM (inactive) in each case. Moreover, the GI50 with OVCAR-8, in the assay with EKVX, in the assay on CAKI-1, in the assay on DU-145, in the assay with A498 and with A549 was > 100 µM (inactive) throughout. Besides, the GI50 in the assay on HOP-62 and in the assay on UACC-257 was > 100 µM (inactive) in each case.

Take `CC(C)(C)c1cc(C2COC(=O)COCCOCC(=O)OCCOCCO2)cc(C(C)(C)C)c1O` (stereo not given): the GI50 in the assay with SK-MEL-2 is > 100 µM (inactive); in the assay on SR it was 21.8 µM (inactive); with TK-10, 16.5 µM (inactive); in the assay with RPMI-8226, > 100 µM (inactive); in the assay on PC-3, 22.4 µM (inactive); with OVCAR-3 it was > 100 µM (inactive). Also, the GI50 is 18.7 µM (inactive) with LOX IMVI; 47.9 µM (inactive) in the assay on UACC-62; 20.7 µM (inactive) with ACHN; > 100 µM (inactive) in the assay on SNB-19; 53.6 µM (inactive) in the assay with SW-620; 29.2 µM (inactive) in the assay on T47D. Moreover, the GI50 was 41.6 µM (inactive) in the assay with OVCAR-8; > 95.1 µM (inactive) in the assay with EKVX; 18 µM (inactive) in the assay on CAKI-1; 19.5 µM (inactive) with DU-145; > 80.5 µM (inactive) with A498; > 100 µM (inactive) with A549. Besides, the GI50 was 36.2 µM (inactive) in the assay with HOP-62 and > 71.6 µM (inactive) in the assay with UACC-257.

On to `c1ccc(COc2ccc(C[P+](c3ccccc3)(c3ccccc3)c3ccccc3)cc2)cc1`, for which the GI50 in the assay on SK-MEL-2 is 0.109 µM (active); in the assay with SR it was 0.46 µM (active); with TK-10, 0.251 µM (active); in the assay with RPMI-8226 it was 0.0257 µM (active); with PC-3, 0.131 µM (active); in the assay with OVCAR-3, 0.146 µM (active). Besides, the GI50 in the assay with LOX IMVI was 0.251 µM (active); with UACC-62, 0.195 µM (active); in the assay on ACHN, 0.676 µM (active); in the assay with SNB-19 it was 0.354 µM (active); in the assay on SW-620, 0.272 µM (active); in the assay on T47D it was < 0.0175 µM (active). Moreover, the GI50 was 0.163 µM (active) with OVCAR-8; 0.233 µM (active) in the assay on EKVX; 6.79 µM (inactive) in the assay with CAKI-1; 0.304 µM (active) in the assay on DU-145; 1.1 µM (active) in the assay on A498; 0.184 µM (active) in the assay on A549. The GI50 with HOP-62 was 0.427 µM (active); in the assay with UACC-257, 0.269 µM (active).

For the compound `O=C(c1ccccc1)c1ccc(C(c2c(O)c3ccccc3oc2=O)c2c(O)c3ccccc3oc2=O)cc1`, the GI50 in the assay on SK-MEL-2 was 28.2 µM (inactive); in the assay with SR it was 20.1 µM (inactive); in the assay with TK-10, 17.9 µM (inactive); with RPMI-8226, 18.5 µM (inactive); in the assay on PC-3, 27 µM (inactive); in the assay with OVCAR-3 it was 26.2 µM (inactive). In addition, the GI50 was 29.9 µM (inactive) in the assay on LOX IMVI; 17.3 µM (inactive) in the assay with UACC-62; 20 µM (inactive) in the assay on ACHN; 19.6 µM (inactive) in the assay on SNB-19; 43.9 µM (inactive) in the assay with SW-620; 34.2 µM (inactive) with T47D. Besides, the GI50 in the assay on OVCAR-8 was 27 µM (inactive); in the assay with EKVX it was 28 µM (inactive); in the assay with CAKI-1 it was 16.8 µM (inactive); with DU-145 it was 31.2 µM (inactive); with A498 it was 24.5 µM (inactive); with A549, 26.9 µM (inactive). Also, the GI50 with HOP-62 is 28.7 µM (inactive); with UACC-257, 22.8 µM (inactive).

Regarding `COc1ccc2c(c1)C(=O)c1ccccc1C2`, the GI50 was 48.3 µM (inactive) in the assay with SK-MEL-2; 46.7 µM (inactive) with SR; 48.1 µM (inactive) in the assay on TK-10; 46.8 µM (inactive) with RPMI-8226; 29.2 µM (inactive) in the assay on PC-3; 82.2 µM (inactive) in the assay with OVCAR-3. The GI50 is 49.9 µM (inactive) with LOX IMVI; 51.8 µM (inactive) with UACC-62; > 100 µM (inactive) with ACHN; > 100 µM (inactive) in the assay on SNB-19; 71.4 µM (inactive) in the assay with SW-620; 19.7 µM (inactive) in the assay on T47D. For the same compound, the GI50 in the assay on OVCAR-8 is > 100 µM (inactive); in the assay on EKVX it was 39.6 µM (inactive); in the assay with CAKI-1 it was 79.6 µM (inactive); in the assay with DU-145, 17.1 µM (inactive); in the assay on A498, 29.7 µM (inactive); in the assay with A549, 86.7 µM (inactive). The GI50 with HOP-62 was 50.6 µM (inactive); in the assay with UACC-257, 33.8 µM (inactive).

Take `N#Cc1c(Cl)c2cccnc2n2c1nc1ccccc12`: the GI50 is 8 µM (inactive) in the assay with SK-MEL-2; 1.08 µM (active) in the assay on SR; 1.67 µM (inactive) in the assay with TK-10; 1.78 µM (inactive) in the assay with RPMI-8226; 2.41 µM (inactive) with PC-3; 2.72 µM (inactive) with OVCAR-3. Also, the GI50 in the assay with LOX IMVI was 1.66 µM (inactive); in the assay on UACC-62 it was 3.96 µM (inactive); with ACHN, 1.78 µM (inactive); in the assay with SNB-19 it was 15.8 µM (inactive); in the assay on SW-620, 1.87 µM (inactive); in the assay with T47D, 2 µM (inactive). Moreover, the GI50 in the assay on OVCAR-8 was 1.96 µM (inactive); in the assay on EKVX, 4.22 µM (inactive); in the assay on CAKI-1 it was 1.9 µM (inactive); in the assay on DU-145, 1.98 µM (inactive); in the assay with A498, 17.3 µM (inactive); in the assay on A549, 6.59 µM (inactive). Further, the GI50 in the assay with HOP-62 is 16.6 µM (inactive); with UACC-257, 2.69 µM (inactive).

Take `CCOC(=O)c1sc2nc(SC)nc(Nc3ccc(OC)c(OC)c3)c2c1N`: the GI50 with SK-MEL-2 was 19.7 µM (inactive); in the assay with SR, 20.9 µM (inactive); in the assay on TK-10, 6.73 µM (inactive); in the assay on RPMI-8226, 1.84 µM (inactive); in the assay on PC-3, 63.8 µM (inactive); in the assay with OVCAR-3, 9.35 µM (inactive). Also, the GI50 is > 100 µM (inactive) with LOX IMVI; 4.74 µM (inactive) with UACC-62; 13.2 µM (inactive) in the assay with ACHN; 18 µM (inactive) in the assay with SNB-19; 7 µM (inactive) with SW-620; 6.08 µM (inactive) in the assay on T47D. Also, the GI50 is 4.81 µM (inactive) in the assay on OVCAR-8; 23.3 µM (inactive) in the assay with EKVX; 89.9 µM (inactive) in the assay with CAKI-1; 20.2 µM (inactive) in the assay with DU-145; 4.76 µM (inactive) with A498; 5.28 µM (inactive) with A549. In addition, the results for the GI50 in the assay on HOP-62 and in the assay with UACC-257 were 6.04 µM (inactive) and > 100 µM (inactive), respectively.

In the case of `COc1cc(/C=C/C(=O)OC2C(O)C3CC(OC(=O)c4cc(OC)c(OC)c(OC)c4)CC2N3C)cc(OC)c1OC` (stereo not given), the GI50 in the assay with SK-MEL-2 is 47.1 µM (inactive); in the assay with SR, 10.1 µM (inactive); in the assay on TK-10 it was > 50 µM (inactive); in the assay on RPMI-8226 it was 33 µM (inactive); in the assay with PC-3, 35.6 µM (inactive); in the assay on OVCAR-3 it was 8.02 µM (inactive). Besides, the GI50 is 15.3 µM (inactive) in the assay on LOX IMVI; > 50 µM (inactive) with UACC-62; 21.9 µM (inactive) in the assay on ACHN; 12.9 µM (inactive) with SNB-19; 16 µM (inactive) with SW-620; 14.5 µM (inactive) in the assay with T47D. The GI50 is 12.5 µM (inactive) with OVCAR-8; > 50 µM (inactive) in the assay on EKVX; 27 µM (inactive) in the assay with CAKI-1; > 50 µM (inactive) in the assay on DU-145; 8.04 µM (inactive) in the assay with A498; > 50 µM (inactive) in the assay with A549. Moreover, the GI50 in the assay with HOP-62 was 26.4 µM (inactive); in the assay on UACC-257, > 50 µM (inactive).

In the case of `O=NN(CCCl)C(=O)NCCCl` [CARMUSTINE], the GI50 in the assay on SK-MEL-2 is 91 µM (inactive); with SR, 14 µM (inactive); in the assay on TK-10 it was 93.1 µM (inactive); with RPMI-8226 it was 51.3 µM (inactive); in the assay with PC-3, 97.7 µM (inactive); in the assay with OVCAR-3, 83.6 µM (inactive). Further, the GI50 in the assay on LOX IMVI was 38 µM (inactive); with UACC-62, 23.8 µM (inactive); in the assay on ACHN it was 83 µM (inactive); in the assay with SNB-19 it was 68.4 µM (inactive); in the assay on SW-620, 52.2 µM (inactive); with T47D it was 110 µM (inactive). For the same compound, the GI50 in the assay with OVCAR-8 is 77.8 µM (inactive); with EKVX, 120 µM (inactive); in the assay with CAKI-1, 71.9 µM (inactive); with DU-145, 169 µM (inactive); with A498, 102 µM (inactive); with A549 it was 103 µM (inactive). Besides, the GI50 in the assay on HOP-62 is 97.3 µM (inactive); in the assay on UACC-257 it was 75.5 µM (inactive).
